From patent US20050170019A1, “Methods, compositions and devices for inducing stasis in cells” (Fred Hutchinson Cancer Research Center, priority 2003, published 2005)

Assays:
mice [1] = experiment: Telemetry of core body temperature, heart rate and movement of mice in regulated H2S atmosphere; type: in vivo, mouse
Source text: Implantation of telemetry devices.
Exposure of Mice to Regulated Atmosphere.
Regulation of Ambient Temperature. […] Mice were exposed to regulated atmosphere as described above.

mice [2] = settings: mice tested before and after exposure
rats = settings: cited from earlier work
humans = settings: cited from earlier work
mice [3] = experiment: Visual observation of breathing of mice administered H2S; type: in vivo, mouse
Source text: The different parameters of stasis (reduction in oxygen consumption, decrease in carbon dioxide production or decrease in motility) can be assessed by a variety of assays and techniques. […] Indeed, this encompasses all three parameters in that it is indicative of decreased oxygen consumption, carbon dioxide production and motility. A normal mouse in room air at standard conditions will take approximately 200 breaths per minute. […] Thus, this represents at least about a 1-20-fold decrease in cellular respiration (i.e, oxygen consumption and carbon dioxide production).
During the experiment, the mouse was visually observed and its movements were recorded by web camera, and telemetry measurements were recorded as described above. […] At the end of an approximately six-hour period, heat was applied to the cabinet by setting the cabinet temperature to 25° C. […] After the cabinet was warmed, weak respiration was observed when the core body temperature of the mouse achieved 14° C. […] Normal movement and respiration were fully apparent when the core body temperature returned to 25° C.

mice [4] = settings: 80 ppm, cited from earlier work
mice [5] = experiment: Respirometry (oxygen consumption, carbon dioxide production) of mice exposed to H2S; type: in vivo, mouse
Procedure: Measurements were over a period of 15 minutes, with the mice in a 0.5 L sealed environmental chamber with flow rates of 500 cc/min. Consumption of oxygen is obtained by subtracting the oxygen concentration when the mouse is present, from the control when the mouse is absent. Likewise, production of carbon dioxide is obtained by subtracting the carbon dioxide concentration when the mouse is present from the control when the mouse is absent. RQ stands for respiratory quotient, and is equal to the ratio of carbon dioxide produced to oxygen […]. […] The change in the respiratory quotient reflects the disparity oxygen consumption and carbon dioxide production by the mice in the presence or absence of the H2S.

[6] = second mouse, 80 ppm, 3 hrs, incubator 18° C.
[7] = mice, H2S 80 ppm versus without H2S

With `S` [hydrogen sulfide, Hydrogen sulfide] the core temperature reached (mice [1]; first mouse, 80 ppm, 90 min, incubator 18° C.) was 28.6 °C, the “time to return to normal range of core temperature and activity in room air” value (mice [1]; first mouse, after 90 min at 80 ppm) was no more than 60 min and the “behavior of the animals after treatment” value (mice [1]; four mice maintained for 4 weeks after 6 hr 80 ppm at 15° C.) was “no apparent change in the behavior”. For the same compound, the “behavior compared to untreated animals” value (mice [1]; mouse after 80 ppm at cabinet 10.5° C.) was “no apparent change in the behavior”, the “core body temperature repeatedly reached” value (mice [1]; mouse, 80 ppm protocol) was 13-15 °C and the “lowest core body temperature recorded (FIG. 7)” value (mice [1]; mouse, 80 ppm, ambient dropped to less than 10° C.) was 10.7 °C. For the same compound, the “time to recover activity after removal from gassing chamber” value (mice [1]; non-telemetry mouse, 80 ppm, cabinet 10° C.) was no more than 90 min, the core temperature reached (mice [1]; [6]) was 18.6 °C and the “heart rate reached (from 600 bpm)” value (mice [1]; [6]) was 250 bpm. The “recovery after rewarming in room air” value (mice [1]; seven mice, 80 ppm, 6 hrs) was “successfully recovered”, the “lowest average core body temperature” value (mice [1]; seven mice, 80 ppm, 6 hrs, ambient temperature 13° C.) was 15 °C and the “core temperature reached (estimation, electronics failed at 15.3° C.)” value (mice [1]; telemetry mouse, 80 ppm, cabinet 10° C.) was “approximately 12.5 °C”. The “core body temperature reached” value (mice [1]; telemetry mouse, 80 ppm, cabinet 10.5° C., approximately six hours) was 10.5 °C, the “behavioral differences after gas exposure” value (mice [2]) was “no detectable behavioral differences” and the “neurologic effect of perinatal exposure” value (rats; 20 or 50 ppm, 7 hours per day, gestation through post-natal day 21) was “longer dendritic branches with reduced aborization of cerebellar Purkinje cells”. For the same compound, the “effects in exposed rat pups, perinatal study” value (rats; 80 ppm (Dorman et al., 2000)) was “no neuropathological effects or altered motor activity, passive avoidance, or acoustic startle response”, the “learning of baited radial arm maze task” value (rats; moderate levels (Partlo et al., 2001)) was “interferes with the ability of rats to learn a baited radial arm maze task” and the discriminated avoidance responses (rats; moderate levels, immediately after end of exposure (Higuchi and Fukamachi)) was “inhibits discriminated avoidance responses”. For the same compound, the “adverse effect, gross and histopathological examination” value (rats; rats, 80 ppm, 6 hrs per day, 5 days per week, 90 days) was “no observed adverse effect”, the “effect of exposure to extreme levels” value (humans; 500 ppm) was “sudden collapse and unconsciousness” and the “effect of a single breath (knock down)” value (humans; atmosphere with 0.1% hydrogen sulfide) was “immediately collapse”. The “OSHA limit for humans” value (humans; in vivo) was 10 ppm, the “core body temperature at which weak respiration was observed on warming” value (mice [3]; 80 ppm, after cabinet 10.5° C., warming) was 14 °C and the “decrease in cellular respiration” value (mice [3]; 80 ppm, core temperature 15° C., from breathing) was 1-20 fold. The breathing (mice [3]; 80 ppm, core temperature dropped to 15° C., normal approximately 200) was 1-10 breaths per minute, the “core body temperature at which normal movement and respiration were fully apparent” value (mice [3]; after 80 ppm at 10.5° C., warming, room air) was 25 °C and the tolerability (mice [4]; exposures lasting up to ten weeks (CIIT 1983; Hays, 1972)) was “innocuous”. For the same compound, the “adverse effect, gross and histopathological examination” value (mice [4]; mice, 6 hrs per day, 5 days per week, 90 days) was “no observed adverse effect”, the “RQ (respiratory quotient)” value (mice [5]; H2S (80 ppm) present) was 0.58 and the “production of carbon dioxide” value (mice [5]; H2S (80 ppm) present) was 750 ppm. The Consumption of oxygen (mice [5]; H2S (80 ppm) present, control without mouse minus mouse present) was 1300 ppm, the “drop in carbon dioxide production” value (mice [5]; [7]) was 3-4 fold and the “drop in oxygen consumption” value (mice [5]; [7]) was 2-3 fold. For the same compound, the “decrease in CO2 production” value (mice [5]; mouse, 80 ppm (FIG. 4A)) was “approximately 3 fold” and the “time to reduced carbon dioxide production (new baseline)” value (mice [5]; mouse, 80 ppm (FIG. 4A)) was “approximately 5 minutes”.
